Assay results published in patent US11827628B2, “Compositions and methods for inhibition of the JAK pathway” (Rigel Pharmaceuticals, Inc., priority 2005, dated 2023).
Structures can show the parent of a compound that is named as a salt. Where two headings read alike, the source gives them in different places.

Tested on: IL-4 stimulated expression of CD23 in human Ramos B cells (JAK-1 and JAK-3)
Assay: Assay for Ramos B-Cell Line Stimulated with IL-4 (CD23 upregulation, FACS)
Type: cell-based
Conditions: read-out: IC50, Example 41
From the text: One means of assaying for such inhibition is detection of the effect of the 2,4-substituted pyrimidinediamine compounds on the upregulation of downstream gene products. In the Ramos/IL4 assay, B-cells are stimulated with the cytokine Interleukin-4 (IL-4) leading to the activation of the JAK/Stat pathway through phosphorylation of the JAK family kinases, JAK1 and JAK3, which in turn phosphorylate and activate the transcription factor Stat-6. […] To study the effect of inhibitors (e.g., the 2,4-substituted pyrimindinediamine compounds described herein) on the JAK1 and JAK3 kinases, human Ramos B cells are stimulated with human IL-4. Twenty to 24 hours post stimulation, cells are stained for upregulation of CD23 and analyzed using flow cytometry (FACS). […] An exemplary assay of this type is described in greater detail in Example 41
B-cells stimulated with cytokine Interleukin-4 (IL-4) activate the JAK/Stat pathway through phosphorylation of the JAK family kinases, JAK-1 and JAK-3, which in turn phosphorylate and activate the transcription factor Stat-6. […] To study the effect of inhibitors on the JAK family kinases, human Ramos B cells are stimulated with human IL-4.
The Ramos B-cell line was acquired from ATCC (ATCC Catalog No. CRL-1596). The cells were cultured in RPMI 1640 (Cellgro, MediaTech, Inc., Herndon, VA, Cat No. 10-040-CM) with 10% fetal bovine serum (FBS), heat inactivated (JRH Biosciences, Inc, Lenexa, Kansas, Cat No. 12106-500M) according to ATCC propagation protocol. Cells were maintained at a density of 3.5×10^5. The day before the experiment, Ramos B-cells were diluted to 3.5×10^5 cells/mL to ensure that they were in a logarithmic growth phase.
Cells were spun down and suspended in RPMI with 5% serum. 5×10^4 cells were used per point in a 96-well tissue culture plate. Cells were pre-incubated with compound or DMSO (Sigma-Aldrich, St. Louis, MO, Cat No. D2650) vehicle control for 1 hour in a 37° C. incubator. Cells were then stimulated with IL-4 (Peprotech Inc., Rocky Hill, NJ, Cat No. 200-04) for a final concentration of 50 units/mL for 20-24 hours. Cells were then spun down and stained with anti-CD23-PE(BD Pharmingen, San Diego, CA, Cat No. 555711) and analyzed by FACS. Detection was performed using a BD LSR I System Flow Cytometer, purchased from Becton Dickinson Biosciences of San Jose, California The IC50 calculated based on the results of this assay are provided in TABLE XII.

[1] = Homo sapiens, Ramos, Ramos B-cell line stimulated with IL-4, CD23 expression by FACS
[2] = Homo sapiens, Ramos, Ramos B cells stimulated with IL-4, CD23 expression by FACS
[3] = Ramos B cells stimulated with IL-4, CD23 expression by FACS
[4] = Ramos B-cell line stimulated with IL-4, CD23 expression by FACS
[5] = Ramos B-cell line stimulated with IL-4, CD23 expression by FACS, sodium salt

IC50 [2] [nM]	IC50 [3] [nM]	Compound	other results
6090		Cc1ccc(Nc2ncc(F)c(Nc3ccc4nc(O)cc(C)c4c3)n2)cc1S(N)(=O)=O [VII-73, N2-(3-Aminosulfonyl-4-methylphenyl)-5-fluoro-N4-(2-hydroxy-4-methylquinolin-6-yl)-2,4-pyrimidinediamine]	
	217	CNS(=O)(=O)c1ccc(Nc2ncc(F)c(Nc3ccc4c(c3)OCCO4)n2)cc1OC [VII-25, N4-(3,4-Ethyenedioxyphenyl)-5-fluoro-N2-[4-(N-methyl)aminosulfonyl-3-methoxyphenyl]-2,4-pyrimidinediamine]	
602		CN1C(=O)C(C)(C)S(=O)(=O)c2ccc(Nc3nc(Nc4cccc(S(N)(=O)=O)c4)ncc3F)cc21 [VII-11, N2-(3-Aminosulphonylphenyl)-5-fluoro-N4-(2,2,4-trimethyl-1,1,3-trioxo-benzo[1,4]thiazin-6-yl)-2,4-pyrimidinediamine]	
4560		Cc1cc(O)nc2ccc(Nc3nc(Nc4cccc(S(N)(=O)=O)c4)ncc3F)cc12 [VII-74, N2-(3-Aminosulfonylphenyl)-5-fluoro-N4-(2-hydroxy-4-methylquinolin-6-yl)-2,4-pyrimidinediamine]	
	603	CN1C(=O)C(C)(C)Oc2ccc(Nc3nc(Nc4ccc(S(N)(=O)=O)cc4)ncc3F)nc21 [VII-43, N2-(4-Aminosulfonylphenyl)-N4-[2,2,4-trimethyl-3-oxo-5-pyrid[1,4]oxazin-5-yl]-5-fluoro-2,4-pyrimidinediamine]	
	397	CCNC(=O)NCc1cccc(Nc2nc(Nc3cccc(S(N)(=O)=O)c3)ncc2F)c1 [III-117, N2-(3-aminosulfonyl)phenyl-N4-(3-ethylaminocarbonylaminomethyl)phenyl-5-fluoro-2,4-pyrimidinediamine]	
	1280	COc1ccc(Nc2ncc(F)c(Nc3ccc(CN4CCOCC4)cc3)n2)cc1S(N)(=O)=O [III-105, N2-(3-Aminosulfonyl-4-methyleneoxyphenyl)-5-fluoro-N4-(4-N-morpholinomethylenephenyl)-2,4-pyrimidinediamine]	
	836	CCCN(Cc1ccc(Nc2nc(Nc3ccc(S(N)(=O)=O)cc3)ncc2F)cc1)C(N)=O [III-125, N2-(4-aminosulfonyl)phenyl-N4-[4-(N-carbamoyl-N-propyl)aminomethyl]phenyl-5-fluoro-2,4-pyrimidinediamine]	

The remaining lines, values behind:

Compound	IC50 [2] [nM]	IC50 [3] [nM]	other results
Cc1ccc(Nc2ncc(F)c(Nc3ccc(OCC(=O)N4CCOCC4)cc3)n2)cc1S(N)(=O)=O [Compound I-212, N2-(3-Aminosulfonyl-4-methylphenyl)-5-fluoro-N4-[4-(2-morpholin-4-yl-2-oxo-ethoxy)phenyl]-2,4-pyrimidinediamine]			IC50 [1]: 758 nM
NC(=O)COc1ccc(Nc2nc(Nc3ccc(S(N)(=O)=O)cc3)ncc2F)cc1F [Compound I-100, N4-(4-Aminocarbonylmethoxy-3-fluorophenyl)-N2-(4-aminosulfonylphenyl)-5-fluoro-2,4-pyrimidinediamine]			IC50 [1]: 380 nM
CN(C)c1ccc2cc(Nc3nc(Nc4cccc(S(N)(=O)=O)c4)ncc3F)ccc2n1 [VII-76, N2-(3-Aminosulfonylphenyl)-N4-(2-N,N′-dimethylamine-quinolin-6-yl)-5-fluoro-2,4-pyrimidinediamine]		673	
CNC(=O)COc1ccc(Nc2nc(Nc3ccc(S(N)(=O)=O)cc3)ncc2F)cc1Cl [Compound I-146, N2-(4-Aminosulfonylphenyl)-N4-(3-chloro-4-methylaminocarbonylmethoxyphenyl)-5-fluoro-2,4-pyrimidinediamine]			IC50 [1]: 364 nM
CC(=O)NS(=O)(=O)c1cccc(Nc2ncc(F)c(Nc3ccc(OCc4cc(C)on4)cc3)n2)c1 [Compound I-232, N2-(3-Acetamidosulfonylphenyl)-5-fluoro-N4-[4-(5-methylisoxazol-3-yl)methyleneoxyphenyl]-2,4-pyrimidinediamine]			IC50 [4]: 1430 nM
CCC(=O)NS(=O)(=O)c1cccc(Nc2ncc(F)c(Nc3ccc(Cc4ccncc4)cc3)n2)c1 [III-69, 5-Fluoro-N4-[4-(4-pyridinylmethyl)phenyl]-N2-[(3-N-propanamido)sulfonylphenyl)]-2,4-pyrimidinediamine sodium salt]			IC50 [5]: 3320 nM
NC(=O)COc1ccc(Nc2nc(Nc3ccc(S(N)(=O)=O)cc3)ncc2F)cc1 [Compound I-115, N4-(4-Aminocarbonylmethoxy)phenyl-N2-(4-aminosulfonyl)phenyl-5-fluoro-2,4-pyrimidinediamine]			IC50 [4]: 793 nM
CCN(CC)S(=O)(=O)c1ccc(OC)c(Nc2nc(Nc3ccc(Cl)c(Cl)c3)cc(C(=O)OC)n2)c1 [Compound X-1, 6-carbonylmethoxy-N4-(3,4-dichlorophenyl)-N2-(3-N,N-diethylaminosulfonyl-6-methoxyphenyl)-2,4-pyrimidinediamine]	8250		
COc1ccc(CN2C(=O)C(C)Sc3ccc(Nc4nc(Nc5ccc(C)c(S(N)(=O)=O)c5)ncc4F)cc32)cc1 (racemic) [Compound V-9, (R/S)-N2-(3-Aminosulphonyl-4-methylphenyl)-5-fluoro-N4-[2-methyl-3-oxo-4-(4-methoxybenzyl)-benzo[1,4]thiazin-6-yl]-2,4-pyrimidinediamine]	1110		
CCC(=O)NS(=O)(=O)c1cccc(Nc2ncc(F)c(Nc3ccc(CCOC(=O)N(C)C)cc3)n2)c1 [VI-64, N4-{4-[2-(Dimethylaminocarbonyloxy)ethyl]phenyl}-5-fluoro-N2-(3-propionylaminosulfonylphenyl)-2,4-pyrimidinediamine]	5800		
COC(=O)CNS(=O)(=O)c1cccc(Nc2ncc(F)c(Nc3ccc(OCc4cc(C)on4)cc3)n2)c1 [Compound I-215, 5-Fluoro-N2-[3-(N-methoxycarbonylmethylene)aminosulfonylphenyl]-N4-[4-(5-methylisoxazol-3-yl)methyleneoxyphenyl]-2,4-pyrimidinediamine]			IC50 [4]: 976 nM
CN(C)C(=O)COc1ccc(Nc2nc(Nc3ccc(Cl)c(S(N)(=O)=O)c3)ncc2F)cc1Cl [Compound I-140, N2-(3-Aminosulfonyl-4-chlorophenyl)-N4-(3-chloro-4-dimethylaminocarbonylmethoxyphenyl)-5-fluoro-2,4-pyrimidinediamine]			IC50 [1]: 388 nM
CNS(=O)(=O)c1cc(Nc2ncc(F)c(Nc3ccc(C(=O)N4CCSCC4)cc3)n2)ccc1C [IX-33, 5-Fluoro-N2-[3-(N-methylaminosulfony)-4-methylphenyl]-5-fluoro-N4-[4-(4-thiomorpholino)carbonylphenyl]-2,4-pyrimidinediamine]		521	
C#CCn1ccc2ccc(Nc3nc(Nc4ccc(C)c(S(N)(=O)=O)c4)ncc3F)cc21 [IX-3, N2-(3-Aminosulfonyl-4-methylphenyl)-5-fluoro-N4-[1-(propyn-3-yl)indol-6-yl]-2,4-pyrimidinediamine]	115		
Cc1cnc(Nc2ccc(S(N)(=O)=O)cc2)nc1Nc1ccc(OCc2ccccn2)cc1 [Compound I-181, N2-(4-Aminosulfonylphenyl)-5-methyl-N4-[4-(2-pyridinyl)methyleneoxyphenyl]-2,4-pyrimidinediamine]			IC50 [4]: 13 nM
COC(=O)CNS(=O)(=O)c1cccc(Nc2ncc(F)c(Nc3ccc(Cl)c(Cl)c3)n2)c1 [VI-8, N4-(3,4-Dichlorophenyl)-5-fluoro-N2-[3-(N-methoxycarbonylmethylene)aminosulfonylphenyl]-2,4-pyrimidinediamine]		2280	
C#CCNS(=O)(=O)c1cccc(Nc2nc(Nc3ccc(S(N)(=O)=O)cc3)ncc2F)c1 [VI-80, N2-(4-Aminosulfonylphenyl)-5-fluoro-N4-[3-(prop-2-ynylaminosulfonyl)phenyl]-2,4-pyrimidinediamine]	360		
CCC(=O)NS(=O)(=O)c1cc(Nc2ncc(F)c(Nc3ccc(OCC#N)cc3)n2)ccc1C [Compound I-31, N4-(4-Cyanomethyleneoxy)phenyl-5-fluoro-N2-(4-methyl-3-propionylaminosulfonyl)phenyl-2,4-pyrimidinediamine sodium salt]			IC50 [5]: 4630 nM
NS(=O)(=O)c1cccc(Nc2ncc(F)c(Nc3cccc(S(N)(=O)=O)c3)n2)c1 [VI-113, N2,N4-Bis-(3-aminosulfonylphenyl)-5-fluoro-2,4-pyrimidinediamine]	700		
N2-(4-aminosulfonyl)phenyl-5-fluoro-N4-(4-thiomethylcarbonyl)phenyl-2,4-pyrimidinediamine [VI-94]		944	
